From article PMC2671474 (Chemistry & biology, 2009)

Experiments:
P. falciparum FTase = P. falciparum FTase (Plasmodium falciparum, UniProt Q5EI73+Q5EI74); test: P. falciparum FTase activity assay as described in Glenn et al., 2006; format: biochemical; conditions: for Selectivity: IC50 for hFTase divided by IC50 for PfFTase
Human FTase = Human FTase (Homo sapiens, UniProt P49354+P49356); conditions: legend of Figure 4C; mammalian enzyme
[1] = read-out: inhibition of P. falciparum FTase activity

SMILES	Selectivity (P. falciparum FTase)	inhibition at 0.0005 µM (P. falciparum FTase; [1])	inhibition at 0.005 µM (P. falciparum FTase; [1])	IC50 (in words) (Human FTase)
Cc1ccccc1S(=O)(=O)N(CCN(Cc1cncn1C)c1ccc(C#N)cc1)Cc1ccccc1 [Compound 7, N-Benzyl, N-{2-[(4-cyanophenyl)-(3-methyl-3H-imidazol-4-ylmethyl)-amino]-ethyl} 2-methyl-benzenesulfonamide]	32			
Cc1ccccc1S(=O)(=O)N(CCN(Cc1cncn1C)c1ccc(C#N)cc1)CC1CCN(C(=O)OC(C)(C)C)CC1 [Compound 5, N-(N-tert-Butoxycarbonylpiperidin-4-ylmethyl), N-({2-[(4-cyanophenyl)-(3-methyl-3H-imidazol-4-ylmethyl)-amino]-ethyl}) 2-methylbenzenesulfonamide]		20%	76%	
Cn1cncc1CN(CCN(CC1CCN(C(=O)OC(C)(C)C)CC1)S(=O)(=O)c1ccccc1-c1cccc(CCC(=O)O)c1)c1ccc(C#N)cc1 [Compound 10, N-(N-tert-Butoxycarbonylpiperidin-4-ylmethyl), N-({2-[(4-cyanophenyl)-(3-methyl-3H-imidazol-4-ylmethyl)-amino]-ethyl}) (3′-(2-carboxyethyl)-biphenyl)-2-sulfonamide]	11			sub-micromolar
